{"source": "ChEMBL document CHEMBL3102853", "about": "“Carbonic anhydrase inhibitors. Synthesis, and molecular structure of novel series N-substituted N'-(2-arylmethylthio-4-chloro-5-methylbenzenesulfonyl)guanidines and their inhibition of human cytosolic isozymes I and II and the transmembrane tumor-associated isozymes IX and XII” (Eur J Med Chem, 2014)", "key": {"MCF7": {"test_system": "MCF7", "test": "Cytotoxicity against human MCF7 cells at 10 uM", "assay_type": "functional"}, "A498": {"test_system": "A498", "test": "Cytotoxicity against human A498 cells at 10 uM", "assay_type": "functional"}, "[1]": {"test": "(§1) Cytotoxicity against human Hs 578T cells at 10 uM", "assay_type": "functional", "conditions": "read-out: GI"}, "DU-145": {"test_system": "DU-145", "test": "Cytotoxicity against human DU145 cells at 10 uM", "assay_type": "functional"}, "NCI/ADR-RES": {"test_system": "NCI/ADR-RES", "test": "Cytotoxicity against human NCI-ADR-RES cells at 10 uM", "assay_type": "functional"}, "HT-29": {"test_system": "HT-29", "test": "Cytotoxicity against human HT-29 cells at 10 uM", "assay_type": "functional"}, "A549": {"test_system": "A549", "test": "Cytotoxicity against human A549 cells at 10 uM", "assay_type": "functional"}, "T47D": {"test_system": "T47D", "test": "Cytotoxicity against human T47D cells at 10 uM", "assay_type": "functional", "conditions": "read-out: GI"}, "HOP-92": {"test_system": "HOP-92", "test": "Cytotoxicity against human HOP92 cells at 10 uM", "assay_type": "functional", "conditions": "read-out: GI"}, "SNB-75": {"test_system": "SNB-75", "test": "Cytotoxicity against human SNB75 cells at 10 uM", "assay_type": "functional", "conditions": "read-out: GI"}, "OVCAR-3": {"test_system": "OVCAR-3", "test": "Cytotoxicity against human OVCAR3 cells at 10 uM", "assay_type": "functional"}, "SW-620": {"test_system": "SW-620", "test": "Cytotoxicity against human SW620 cells at 10 uM", "assay_type": "functional"}, "SK-MEL-2": {"test_system": "SK-MEL-2", "test": "Cytotoxicity against human SK-MEL-2 cells at 10 uM", "assay_type": "functional"}, "PC-3": {"test_system": "PC-3", "test": "Cytotoxicity against human PC3 cells at 10 uM", "assay_type": "functional"}, "NCI-H460": {"test_system": "NCI-H460", "test": "Cytotoxicity against human NCI-H460 cells at 10 uM", "assay_type": "functional"}, "SF-268": {"test_system": "SF-268", "test": "Cytotoxicity against human SF268 cells at 10 uM", "assay_type": "functional"}, "LOX IMVI": {"test_system": "LOX IMVI", "test": "Cytotoxicity against human LOXIMVI cells at 10 uM", "assay_type": "functional", "conditions": "read-out: GI"}, "Carbonic anhydrase 9 [2]": {"molecular_target": "T1, Carbonic anhydrase 9 (Homo sapiens, UniProt Q16790)"}, "UACC-62": {"test_system": "UACC-62", "test": "Cytotoxicity against human UACC62 cells at 10 uM", "assay_type": "functional"}, "KM12": {"test_system": "KM12", "test": "Cytotoxicity against human KM12 cells at 10 uM", "assay_type": "functional"}, "Hs-578T": {"test_system": "Hs-578T", "test": "as §1", "assay_type": "functional"}, "MOLT-4": {"test_system": "MOLT-4", "test": "Cytotoxicity against human MOLT4 cells at 10 uM", "assay_type": "functional", "conditions": "read-out: GI"}, "K562": {"test_system": "K562", "test": "Cytotoxicity against human K562 cells at 10 uM", "assay_type": "functional", "conditions": "read-out: GI"}, "RPMI-8226": {"test_system": "RPMI-8226", "test": "Cytotoxicity against human RPMI8226 cells at 10 uM", "assay_type": "functional"}, "SR": {"test_system": "SR", "test": "Cytotoxicity against human SR cells at 10 uM", "assay_type": "functional"}, "MDA-MB-468": {"test_system": "MDA-MB-468", "test": "Cytotoxicity against human MDA-MB-468 cells at 10 uM", "assay_type": "functional", "conditions": "read-out: GI"}, "HL-60(TB)": {"test_system": "HL-60(TB)", "test": "Cytotoxicity against human HL-60(TB) cells at 10 uM", "assay_type": "functional", "conditions": "read-out: GI"}, "Carbonic anhydrase 9 [3]": {"molecular_target": "T1, Carbonic anhydrase 9", "remark": "listed apart in the source", "description": "Inhibition of CA9 (unknown origin)"}}, "note": "Activity calls are given as the source filed them. The rule behind the calls is not given here."}
{"smiles": "Cc1cc(S(=O)(=O)NC(=N)Nc2nnc(S(N)(=O)=O)s2)c(SCc2cccc3ccccc23)cc1Cl", "values": [{"measurement": "growth inhibition (GI)", "setting": "MCF7", "result": "inactive"}, {"measurement": "inhibition of growth at 10 µM", "setting": "A498; read-out: GI", "result": 48, "unit": "%"}, {"measurement": "inhibition of growth at 10 µM", "setting": "[1]", "result": 15, "unit": "%"}, {"measurement": "growth inhibition (GI)", "setting": "DU-145", "result": "inactive"}, {"measurement": "growth inhibition (GI)", "setting": "NCI/ADR-RES", "result": "inactive"}, {"measurement": "growth inhibition (GI)", "setting": "HT-29", "result": "inactive"}, {"measurement": "growth inhibition (GI)", "setting": "A549", "result": "inactive"}, {"measurement": "inhibition of growth at 10 µM", "setting": "T47D", "result": 17, "unit": "%"}, {"measurement": "inhibition of growth at 10 µM", "setting": "HOP-92", "result": 3, "unit": "%"}, {"measurement": "inhibition of growth at 10 µM", "setting": "SNB-75", "result": 11, "unit": "%"}, {"measurement": "growth inhibition (GI)", "setting": "OVCAR-3", "result": "inactive"}, {"measurement": "inhibition of growth at 10 µM", "setting": "SW-620; read-out: GI", "result": 8, "unit": "%"}, {"measurement": "growth inhibition (GI)", "setting": "SK-MEL-2", "result": "inactive"}, {"measurement": "growth inhibition (GI)", "setting": "PC-3", "result": "inactive"}, {"measurement": "inhibition of growth at 10 µM", "setting": "NCI-H460; read-out: GI", "result": 3, "unit": "%"}, {"measurement": "inhibition of growth at 10 µM", "setting": "SF-268; read-out: GI", "result": 4, "unit": "%"}, {"measurement": "inhibition of growth at 10 µM", "setting": "LOX IMVI", "result": 2, "unit": "%"}, {"measurement": "Ki", "setting": "Carbonic anhydrase 9 [2]", "result": 9.4, "unit": "nM"}, {"measurement": "inhibition of growth at 10 µM", "setting": "UACC-62; read-out: GI", "result": 2, "unit": "%"}, {"measurement": "growth inhibition (GI)", "setting": "KM12", "result": "inactive"}]}
{"smiles": "Cc1cc(S(=O)(=O)NC(=N)Nc2nnc(S(N)(=O)=O)s2)c(SCc2ccccc2)cc1Cl", "values": [{"measurement": "inhibition of growth at 10 µM", "setting": "MCF7; read-out: GI", "result": 11, "unit": "%"}, {"measurement": "growth inhibition (GI)", "setting": "A498", "result": "inactive"}, {"measurement": "growth inhibition (GI)", "setting": "Hs-578T", "result": "inactive"}, {"measurement": "inhibition of growth at 10 µM", "setting": "MOLT-4", "result": 14, "unit": "%"}, {"measurement": "growth inhibition (GI)", "setting": "DU-145", "result": "inactive"}, {"measurement": "growth inhibition (GI)", "setting": "NCI/ADR-RES", "result": "inactive"}, {"measurement": "growth inhibition (GI)", "setting": "HT-29", "result": "inactive"}, {"measurement": "growth inhibition (GI)", "setting": "A549", "result": "inactive"}, {"measurement": "inhibition of growth at 10 µM", "setting": "T47D", "result": 6, "unit": "%"}, {"measurement": "inhibition of growth at 10 µM", "setting": "HOP-92", "result": 1, "unit": "%"}, {"measurement": "inhibition of growth at 10 µM", "setting": "SNB-75", "result": 18, "unit": "%"}, {"measurement": "growth inhibition (GI)", "setting": "OVCAR-3", "result": "inactive"}, {"measurement": "inhibition of growth at 10 µM", "setting": "K562", "result": 2, "unit": "%"}, {"measurement": "growth inhibition (GI)", "setting": "SW-620", "result": "inactive"}, {"measurement": "growth inhibition (GI)", "setting": "RPMI-8226", "result": "inactive"}, {"measurement": "growth inhibition (GI)", "setting": "SK-MEL-2", "result": "inactive"}, {"measurement": "growth inhibition (GI)", "setting": "SR", "result": "inactive"}, {"measurement": "inhibition of growth at 10 µM", "setting": "PC-3; read-out: GI", "result": 3, "unit": "%"}, {"measurement": "growth inhibition (GI)", "setting": "NCI-H460", "result": "inactive"}, {"measurement": "growth inhibition (GI)", "setting": "SF-268", "result": "inactive"}, {"measurement": "inhibition of growth at 10 µM", "setting": "LOX IMVI", "result": 4, "unit": "%"}, {"measurement": "growth inhibition (GI)", "setting": "UACC-62", "result": "inactive"}, {"measurement": "inhibition of growth at 10 µM", "setting": "MDA-MB-468", "result": 11, "unit": "%"}, {"measurement": "growth inhibition (GI)", "setting": "KM12", "result": "inactive"}, {"measurement": "inhibition of growth at 10 µM", "setting": "HL-60(TB)", "result": 15, "unit": "%"}]}
{"smiles": "NS(=O)(=O)c1ccc2c(c1)CCC2NC(=O)c1c(F)c(F)c(F)c(F)c1F", "note": "(stereo unspecified)", "values": [{"measurement": "Ki", "setting": "Carbonic anhydrase 9 [3]", "result": 3.2, "unit": "nM"}]}
